How the values were obtained:
B2 bradykinin receptor = molecular target: T1, B2 bradykinin receptor (Homo sapiens, UniProt P30411); type: cell membranes, Membrane; details: chem-1; note: in other assays of this panel Not Active means under 50% inhibition at 10 µM
T1 sequence (P30411 whole entry): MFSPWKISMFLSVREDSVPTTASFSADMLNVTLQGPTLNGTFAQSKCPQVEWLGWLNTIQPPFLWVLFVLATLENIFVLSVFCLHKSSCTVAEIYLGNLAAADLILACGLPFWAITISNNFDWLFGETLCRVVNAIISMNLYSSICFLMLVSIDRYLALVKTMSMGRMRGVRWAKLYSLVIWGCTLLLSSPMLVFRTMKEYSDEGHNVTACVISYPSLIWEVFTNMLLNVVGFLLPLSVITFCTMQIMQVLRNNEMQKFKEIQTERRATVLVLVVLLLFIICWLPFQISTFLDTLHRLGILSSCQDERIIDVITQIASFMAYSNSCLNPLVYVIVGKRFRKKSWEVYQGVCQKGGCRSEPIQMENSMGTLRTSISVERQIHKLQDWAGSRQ

[1] = molecular target: 5-hydroxytryptamine receptor 2B (Homo sapiens, UniProt P41595); type: cell membranes, CHO-K1, Membrane; details: cho-k1; note: in other assays of this panel Not Active means under 50% inhibition at 10 µM
Chain of 5-hydroxytryptamine receptor 2B (P41595 whole entry): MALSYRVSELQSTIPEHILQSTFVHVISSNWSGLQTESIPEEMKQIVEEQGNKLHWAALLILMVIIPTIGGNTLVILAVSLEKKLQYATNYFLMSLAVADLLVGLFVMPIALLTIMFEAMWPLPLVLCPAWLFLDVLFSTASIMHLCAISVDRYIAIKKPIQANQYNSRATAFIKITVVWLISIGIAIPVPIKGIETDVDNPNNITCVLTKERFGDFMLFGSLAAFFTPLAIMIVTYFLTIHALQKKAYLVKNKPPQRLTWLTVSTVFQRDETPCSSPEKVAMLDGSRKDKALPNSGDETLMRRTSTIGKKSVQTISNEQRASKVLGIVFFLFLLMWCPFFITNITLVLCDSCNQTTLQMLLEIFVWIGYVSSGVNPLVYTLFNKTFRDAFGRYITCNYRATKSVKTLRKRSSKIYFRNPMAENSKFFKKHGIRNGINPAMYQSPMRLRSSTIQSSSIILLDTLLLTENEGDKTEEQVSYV

[2] = molecular target: T2, C-X-C chemokine receptor type 2 (Homo sapiens, UniProt P25025); type: cell membranes, CHO-K1, Membrane; details: cho-k1; note: in other assays of this panel Not Active means under 50% inhibition at 10 µM
T2 sequence (P25025 whole entry): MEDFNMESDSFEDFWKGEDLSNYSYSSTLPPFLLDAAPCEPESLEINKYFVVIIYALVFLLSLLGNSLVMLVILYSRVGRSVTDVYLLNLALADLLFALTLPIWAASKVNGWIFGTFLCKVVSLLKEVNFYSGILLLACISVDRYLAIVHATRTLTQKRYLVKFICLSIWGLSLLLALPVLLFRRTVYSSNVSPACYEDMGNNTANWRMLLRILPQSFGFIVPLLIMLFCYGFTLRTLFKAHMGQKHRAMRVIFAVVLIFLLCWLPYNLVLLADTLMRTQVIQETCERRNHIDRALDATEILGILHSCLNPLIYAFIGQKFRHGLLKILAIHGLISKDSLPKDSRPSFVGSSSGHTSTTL

[3] = DRUGMATRIX: Phorbol Ester radioligand binding (ligand: [3H] PDBu); type: cell membranes, Mus musculus, ICR, Brain, Membrane; details: Not Active = under 50% inhibition at 10 µM
[4] = DRUGMATRIX: Platelet-Derived Growth Factor (PDGF) radioligand binding (ligand: [125I] PDGF); type: cell-based; details: nih3t3; Not Active = under 50% inhibition at 10 µM
Cytochrome P450 2A6 = molecular target: T3, Cytochrome P450 2A6 (Homo sapiens, UniProt P11509); details: bti-tn-5b1-4; note: in other assays of this panel Not Active means under 50% inhibition at 10 µM
T3 sequence (P11509 whole entry): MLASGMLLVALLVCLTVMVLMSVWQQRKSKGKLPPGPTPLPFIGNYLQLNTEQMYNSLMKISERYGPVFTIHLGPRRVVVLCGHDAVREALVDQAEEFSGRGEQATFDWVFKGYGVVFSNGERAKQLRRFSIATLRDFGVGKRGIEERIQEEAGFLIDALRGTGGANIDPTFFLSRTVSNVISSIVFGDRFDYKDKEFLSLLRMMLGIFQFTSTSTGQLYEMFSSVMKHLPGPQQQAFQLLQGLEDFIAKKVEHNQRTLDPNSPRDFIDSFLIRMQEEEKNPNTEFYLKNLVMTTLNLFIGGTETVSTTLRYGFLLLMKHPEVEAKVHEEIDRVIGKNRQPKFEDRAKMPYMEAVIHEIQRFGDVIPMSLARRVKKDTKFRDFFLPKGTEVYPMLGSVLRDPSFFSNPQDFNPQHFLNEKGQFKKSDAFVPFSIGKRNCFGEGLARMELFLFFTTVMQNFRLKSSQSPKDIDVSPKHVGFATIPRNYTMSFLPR

Cytochrome P450 2C9 = Cytochrome P450 2C9 (Homo sapiens, UniProt P11712); details: bti-tn-5b1-4; note: in other assays of this panel Not Active means under 50% inhibition at 10 µM
Chain of Cytochrome P450 2C9 (P11712 whole entry): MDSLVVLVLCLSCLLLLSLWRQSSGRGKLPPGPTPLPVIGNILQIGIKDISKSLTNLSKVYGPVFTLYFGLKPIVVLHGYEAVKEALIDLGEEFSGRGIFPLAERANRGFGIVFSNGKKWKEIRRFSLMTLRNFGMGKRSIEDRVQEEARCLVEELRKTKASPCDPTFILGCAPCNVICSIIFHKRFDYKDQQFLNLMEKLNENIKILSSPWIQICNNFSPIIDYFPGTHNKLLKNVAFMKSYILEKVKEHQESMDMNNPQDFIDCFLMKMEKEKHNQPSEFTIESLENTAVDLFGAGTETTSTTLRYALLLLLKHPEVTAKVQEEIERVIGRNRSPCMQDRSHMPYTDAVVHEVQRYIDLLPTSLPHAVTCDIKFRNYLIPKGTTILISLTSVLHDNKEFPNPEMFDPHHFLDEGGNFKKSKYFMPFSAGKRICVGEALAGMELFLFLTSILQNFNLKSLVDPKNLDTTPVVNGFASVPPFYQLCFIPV

Cytochrome P450 2E1 = Cytochrome P450 2E1 (Homo sapiens, UniProt P05181); details: bti-tn-5b1-4; note: in other assays of this panel Not Active means under 50% inhibition at 10 µM
Chain of Cytochrome P450 2E1 (P05181 whole entry): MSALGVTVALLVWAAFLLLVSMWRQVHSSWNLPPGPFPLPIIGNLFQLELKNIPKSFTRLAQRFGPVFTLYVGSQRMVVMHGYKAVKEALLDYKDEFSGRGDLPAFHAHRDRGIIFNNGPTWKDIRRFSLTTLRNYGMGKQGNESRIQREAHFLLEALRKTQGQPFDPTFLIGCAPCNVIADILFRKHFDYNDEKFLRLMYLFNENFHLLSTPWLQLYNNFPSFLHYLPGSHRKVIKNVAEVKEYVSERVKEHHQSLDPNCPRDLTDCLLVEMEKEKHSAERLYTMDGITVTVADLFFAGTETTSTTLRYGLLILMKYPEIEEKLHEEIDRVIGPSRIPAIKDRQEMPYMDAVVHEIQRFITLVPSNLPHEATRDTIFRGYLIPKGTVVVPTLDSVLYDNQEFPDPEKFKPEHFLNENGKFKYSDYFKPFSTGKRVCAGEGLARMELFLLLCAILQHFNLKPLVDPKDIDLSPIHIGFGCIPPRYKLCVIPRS

CNC[C@H](O)c1ccc(O)c(O)c1 [EPINEPHRINE]
Not Active: IC50 (B2 bradykinin receptor) | IC50 [1] | IC50 [2] | IC50 [3] | Ki [3] | IC50 [4] | Ki [4] | IC50 (Cytochrome P450 2A6) | Ki (Cytochrome P450 2A6) | IC50 (Cytochrome P450 2C9) | Ki (Cytochrome P450 2C9) | IC50 (Cytochrome P450 2E1) | Ki (Cytochrome P450 2E1)

CC12CCC(CC1)C(C)(C)O2 [EUCALYPTOL]
Not Active: IC50 (B2 bradykinin receptor) | IC50 [1] | IC50 [2] | IC50 [3] | Ki [3] | IC50 [4] | Ki [4] | IC50 (Cytochrome P450 2A6) | Ki (Cytochrome P450 2A6) | IC50 (Cytochrome P450 2C9) | Ki (Cytochrome P450 2C9) | IC50 (Cytochrome P450 2E1) | Ki (Cytochrome P450 2E1)

NC(N)=Nc1nc(CSCCC(N)=NS(N)(=O)=O)cs1 [FAMOTIDINE]
Not Active: IC50 (B2 bradykinin receptor) | IC50 [1] | IC50 [2] | IC50 [3] | Ki [3] | IC50 [4] | Ki [4] | IC50 (Cytochrome P450 2A6) | Ki (Cytochrome P450 2A6) | IC50 (Cytochrome P450 2C9) | Ki (Cytochrome P450 2C9) | IC50 (Cytochrome P450 2E1) | Ki (Cytochrome P450 2E1)

COC(=O)Nc1nc2ccc(Sc3ccccc3)cc2[nH]1 [FENBENDAZOLE]
Not Active: IC50 (B2 bradykinin receptor) | IC50 [1] | IC50 [2] | IC50 [3] | Ki [3] | IC50 [4] | Ki [4] | IC50 (Cytochrome P450 2A6) | Ki (Cytochrome P450 2A6) | IC50 (Cytochrome P450 2C9) | Ki (Cytochrome P450 2C9) | IC50 (Cytochrome P450 2E1) | Ki (Cytochrome P450 2E1)

COc1cc(/C=C/C(=O)O)ccc1O [FERULATE]
Not Active: IC50 (B2 bradykinin receptor) | IC50 [1] | IC50 [2] | IC50 [3] | Ki [3] | IC50 [4] | Ki [4] | IC50 (Cytochrome P450 2A6) | Ki (Cytochrome P450 2A6) | IC50 (Cytochrome P450 2C9) | Ki (Cytochrome P450 2C9) | IC50 (Cytochrome P450 2E1) | Ki (Cytochrome P450 2E1)

Nc1nc(F)nc2c1ncn2[C@@H]1O[C@H](CO)[C@@H](O)[C@@H]1O [FLUDARABINE]
Not Active: IC50 (B2 bradykinin receptor) | IC50 [1] | IC50 [2] | IC50 [3] | Ki [3] | IC50 [4] | Ki [4] | IC50 (Cytochrome P450 2A6) | Ki (Cytochrome P450 2A6) | IC50 (Cytochrome P450 2C9) | Ki (Cytochrome P450 2C9) | IC50 (Cytochrome P450 2E1) | Ki (Cytochrome P450 2E1)

C[C@H](C(=O)O)c1ccc2oc(-c3ccc(F)cc3)nc2c1 [FLUNOXAPROFEN]
Not Active: IC50 (B2 bradykinin receptor) | IC50 [1] | IC50 [2] | IC50 [3] | Ki [3] | IC50 [4] | Ki [4] | IC50 (Cytochrome P450 2A6) | Ki (Cytochrome P450 2A6) | IC50 (Cytochrome P450 2C9) | Ki (Cytochrome P450 2C9) | IC50 (Cytochrome P450 2E1) | Ki (Cytochrome P450 2E1)

O=C(O)CO [GLYCOLIC ACID]
Not Active: IC50 (B2 bradykinin receptor) | IC50 [1] | IC50 [2] | IC50 [3] | Ki [3] | IC50 [4] | Ki [4] | IC50 (Cytochrome P450 2A6) | Ki (Cytochrome P450 2A6) | IC50 (Cytochrome P450 2C9) | Ki (Cytochrome P450 2C9) | IC50 (Cytochrome P450 2E1) | Ki (Cytochrome P450 2E1)

Clc1cc(Cl)c(OCC#CI)cc1Cl [HALOPROGIN]
Not Active: IC50 (B2 bradykinin receptor) | IC50 [1] | IC50 [2] | IC50 [3] | Ki [3] | IC50 [4] | Ki [4] | IC50 (Cytochrome P450 2A6) | Ki (Cytochrome P450 2A6) | IC50 (Cytochrome P450 2C9) | Ki (Cytochrome P450 2C9) | IC50 (Cytochrome P450 2E1) | Ki (Cytochrome P450 2E1)

COC(=O)C[C@](O)(CCC(C)(C)O)C(=O)O[C@@H]1C(OC)=C[C@]23CCCN2CCc2cc4c(cc2[C@H]13)OCO4 [HARRINGTONINE]
Not Active: IC50 (B2 bradykinin receptor) | IC50 [1] | IC50 [2] | IC50 [3] | Ki [3] | IC50 [4] | Ki [4] | IC50 (Cytochrome P450 2A6) | Ki (Cytochrome P450 2A6) | IC50 (Cytochrome P450 2C9) | Ki (Cytochrome P450 2C9) | IC50 (Cytochrome P450 2E1) | Ki (Cytochrome P450 2E1)

CC(=O)[C@]1(O)Cc2c(O)c3c(c(O)c2[C@@H](O[C@H]2C[C@H](N)[C@H](O)[C@H](C)O2)C1)C(=O)c1ccccc1C3=O [IDARUBICIN]
Not Active: IC50 (B2 bradykinin receptor) | IC50 [1] | IC50 [2] | IC50 [3] | Ki [3] | IC50 [4] | Ki [4] | IC50 (Cytochrome P450 2A6) | Ki (Cytochrome P450 2A6) | IC50 (Cytochrome P450 2C9) | Ki (Cytochrome P450 2C9) | IC50 (Cytochrome P450 2E1) | Ki (Cytochrome P450 2E1)

CC(C)Cn1cnc2c(N)nc3ccccc3c21 [IMIQUIMOD]
Not Active: IC50 (B2 bradykinin receptor) | IC50 [1] | IC50 [2] | IC50 [3] | Ki [3] | IC50 [4] | Ki [4] | IC50 (Cytochrome P450 2A6) | Ki (Cytochrome P450 2A6) | IC50 (Cytochrome P450 2C9) | Ki (Cytochrome P450 2C9) | IC50 (Cytochrome P450 2E1) | Ki (Cytochrome P450 2E1)

O=C(NCCN1CCOCC1)c1ccc(Cl)cc1 [MOCLOBEMIDE]
Not Active: IC50 (B2 bradykinin receptor) | IC50 [1] | IC50 [2] | IC50 [3] | Ki [3] | IC50 [4] | Ki [4] | IC50 (Cytochrome P450 2A6) | Ki (Cytochrome P450 2A6) | IC50 (Cytochrome P450 2C9) | Ki (Cytochrome P450 2C9) | IC50 (Cytochrome P450 2E1) | Ki (Cytochrome P450 2E1)

Source: ChEMBL document CHEMBL1909046, “DrugMatrix in vitro pharmacology data”
